According to PMC2658777, “Prodrugs of Fluoro-Substituted Benzoates of EGC as Tumor Cellular Proteasome Inhibitors and Apoptosis Inducers” (International Journal of Molecular Sciences, 2008):
One block for each compound: values may come before it.

How the values were obtained:
[1] = tested on: Human leukemia Jurkat T cells; assay: Trypan blue dye exclusion cell death assay; format: cell-based; details: 50 μM, 24 h
Experimental: We first tested whether these Pro-F-EGCGs could induce cell death in tumor cells. Human leukemia Jurkat T cells were treated with 50 μM of each analog for 24 h, followed by Trypan-blue exclusion assay. Blue cells and cells with apoptosis-associated morphological changes (shrunken, blebbing, etc) were scored as dead cells. Pro-EGCG (1) and DMSO were used as controls.
The Trypan blue dye exclusion assay was performed by mixing 20 μL of cell suspension with 20 μL of 0.4% Trypan blue dye before injecting into a hemocytometer and counting. The number of cells that absorbed the dye and those that exclude the dye were counted, from which percentage of nonviable cell number over the total cell number was calculated.
(§1) Human leukemia Jurkat T cells were cultured in RPMI 1640 medium supplemented with 10% fetal calf serum, 100 units/mL of penicillin, and 100 μg/mL of streptomycin. Cells were maintained at 37 °C in a humidified incubator with an atmosphere of 5% CO2. Jurkat T cells were treated by selected compounds at various concentrations for indicated hours (see figure legends for details), and a whole-cell extract was then prepared as described previously. Briefly, cells were harvested, washed with PBS, and homogenized in a lysis buffer (50 mM, Tris-HCl, pH 8.0, 150 mM NaCl, 0.5% NP-40, 0.5 mM penylmethylsulfonyl fluoride, and 0.5 mM dithiothreitol) at 4 °C. Afterwards, the lysates were centrifuged at 12,000 × g for 15 min at 4 °C and the supernatants collected as whole-cell extracts.

[2] = target: T1, purified rabbit 20S proteasome (chymotrypsin-like activity) (Oryctolagus cuniculus, UniProt G1T4Q9); assay: Inhibition of the chymotrypsin-like activity of a purified 20S proteasome; format: biochemical; details: fluorogenic substrate, 2 h incubation
T1 construct: purchased Boston Biochem
T1 sequence (G1T4Q9 1-263): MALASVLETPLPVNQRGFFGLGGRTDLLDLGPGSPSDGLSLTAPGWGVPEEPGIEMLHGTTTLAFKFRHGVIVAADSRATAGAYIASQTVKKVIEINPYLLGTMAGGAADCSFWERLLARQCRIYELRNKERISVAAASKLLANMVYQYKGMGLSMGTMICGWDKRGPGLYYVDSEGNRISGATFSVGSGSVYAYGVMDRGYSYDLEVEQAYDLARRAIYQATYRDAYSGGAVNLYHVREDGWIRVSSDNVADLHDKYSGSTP
Experimental: We first tested the effect of these compounds on inhibiting the chymotrypsin-like activity of a purified 20S proteasome using purified EGCG as a positive control. Each of these compounds was incubated with a purified rabbit 20S proteasome and a fluorogenic substrate for chymotrypsin-like activity for 2 h. The half-maximal inhibitory concentration or IC50 was then determined.
Highly purified (-)-EGCG and dimethyl sulfoxide (DMSO) were purchased from Sigma-Aldrich. Purified 20S proteasome (rabbit) was purchased from Boston Biochem. Fluorogenic peptide substrate Suc-Leu-Leu-Val-Tyr-AMC (for the proteasomal chymotrypsin-like activity) was obtained from Calbiochem. Polyclonal antibody to ubiquitin, IκB-α̣ monoclonal anti-actin, anti-goat, anti-rabbit, and anti-mouse IgG-horseradish peroxidase were obtained from Santa Cruz Biotechnology Inc. Mouse monoclonal anitbody against human poly(ADP-ribose) polymerase (PARP) was purchased from Biomol International LP (Plymouth Meeting, PA). RPMI 1640, Penicillin and streptomycin were purchased from Invitrogen.

Jurkat T cells = assay: Western blot of ubiquitinated IκB-α (p56), ubiquitinated proteins and PARP cleavage; format: cell-based, human; details: for p56 IκB-α (ubiquitinated form), Western blot: 50 μM; for accumulation of ubiquitinated proteins, Western blot: Jurkat T cells, 10, 25 or 50 μM
Experimental: (§2) To study whether the induction of cell death by Pro-F-EGCG4 was due to its proteasome-inhibitory and apoptosis-inducing activities, Jurkat T cells were treated with 50 μM of Pro-F-EGCG4 and Pro-EGCG (1) as a control for 4, 8 and 24 h, followed by measurement of proteasome inhibition and apoptotic cell death. […] Previously, we reported that the p56 is an ubiquitinated form of IκB-α protein as a marker of proteasome inhibition, as verified by the immunoprecipitation-Western blot assay. […] Consistently, PARP cleavage fragment p85 was detected in Jurkat T cells treated with Pro-F-EGCG4 in a time-dependent manner (Fig. 3B). A p65 PARP fragment was also detected in cells treated with Pro-F-EGCG4 (Fig. 3B), indicating calpain activation occurred as well [14]. Apoptotic morphological changes were observed after 4 hours of treatment with Pro-F-EGCG4 (data not shown).
as §1
Analysis of IκB-α, PARP, and ubiquitinated proteins was performed using monoclonal or polyclonal antibodies, according to previously reported protocols.

[3] = tested on: proteasomal chymotrypsin (CT)-like activity in Jurkat T cells; assay: Cellular proteasomal chymotrypsin-like activity in extracts of treated cells; format: cell-based, human
Experimental: as §2
We then performed a dose-dependent experiment. Jurkat T cells were treated with Pro-F-EGCG4 or Pro-EGCG (1) at 10, 25, or 50 μM for 24 h, followed by measurement of proteasome inhibition and apoptotic cell death.
as §1
Human leukemia Jurkat T cells were treated with each compound at indicated concentration for indicated hours (see the figure legends for details), harvested, and lysed as described previously. Whole cell extracts were prepared as detailed in section 3.4, aliquoted and kept at −80 °C. One of the aliquots was used for determination of protein concentration. After that, whole cell extracts (10 μg) from each preparation were incubated with Suc-Leu-Leu-Val-Tyr-AMC (20 μM) fluorogenic substrate at 37°C in 100 μl of assay buffer (50 mM Tris-HCL, pH 7.5) for 2 h. After incubation, production of hydrolyzed 7-amino-4-methylcoumarin (AMC) groups was measured using a Victor^3 Multilabel Counter with an excitation filter of 380 nm and an emission filter of 460 nm (PerkinElmer, Boston, MA, USA).

[4] = parameters: method as in PMID 17477351; details: in vitro; cited from earlier work
[5] = tested on: caspase-3/7 activities in Jurkat T cells; assay: Caspase-3/7 activity in extracts of treated cells; format: cell-based, human; details: 50 μM, 24 h (dose-dependent experiment)
Experimental: as §2
Human leukemia Jurkat T cells were cultured in RPMI 1640 medium supplemented with 10% fetal calf serum, 100 units/mL of penicillin, and 100 μg/mL of streptomycin. Cells were maintained at 37 °C in a humidified incubator with an atmosphere of 5% CO2. […]
Cells were treated with each compound at indicated concentration for indicated hours, harvested, and lysed as described previously. Ac-DEVD-AMC (40 μM) was then incubated with the prepared cell lysates for 2 h and the caspase-3 activity was measured as described previously.

[6] = tested on: human breast cancer xenografts; parameters: method as in PMID 17483343; details: human breast cancer xenografts in mice; cited from earlier work
[7] = Jurkat T cells, 50 μM, 4, 8 and 24 h
[8] = Jurkat T cells, 10, 25 or 50 μM, 24 h

Compound: CC(=O)Oc1cc(OC(C)=O)c2c(c1)O[C@H](c1cc(OC(C)=O)c(OC(C)=O)c(OC(C)=O)c1)[C@H](OC(=O)c1ccc(F)cc1)C2 [Pro-F-EGCG3, (-)-(2R, 3R)-5,7-Diacetoxy-2-(3,4,5-triacetoxyphenyl)chroman-3-yl 4-fluorobenzoate]
cell death (dead cells over total cell population) [1]: 30%

Compound: O=C(O[C@@H]1Cc2c(O)cc(O)cc2O[C@@H]1c1cc(O)c(O)c(O)c1)c1cc(O)c(O)c(O)c1 [(-)-EGCG, (-)-epigallocatechin-3-gallate, reference compound]
IC50 [2]: 680 nM

Compound: CC(=O)Oc1cc(OC(C)=O)c2c(c1)O[C@H](c1cc(OC(C)=O)c(OC(C)=O)c(OC(C)=O)c1)[C@H](OC(=O)c1ccc(F)c(F)c1)C2 [Pro-F-EGCG4, (-)-(2R,3R)-5,7-Diacetoxy-2-(3,4,5-triacetoxyphenyl)chroman-3-yl 3,4-difluorobenzoate]
PARP cleavage fragment p85, Western blot (Jurkat T cells; [7]): detected
p56 IκB-α (ubiquitinated form), Western blot (Jurkat T cells; Jurkat T cells, 4 or 8 h): induced the appearance
p56 IκB-α (ubiquitinated form), Western blot (Jurkat T cells; Jurkat T cells, 24 h): not detected
accumulation of ubiquitinated proteins, Western blot (Jurkat T cells; 24 h): caused accumulation of ubiquitinated proteins in a dose-dependent manner
cell death (dead cells over total cell population) [1]: 90%
proteasomal CT-like activity in treated cells [3, 7]: decreased level
proteasomal CT-like activity in treated cells [3, 8]: inhibited the proteasomal CT-like activity in a dose-dependent manner

Compound: CC(=O)Oc1cc(OC(C)=O)c2c(c1)O[C@H](c1cc(OC(C)=O)c(OC(C)=O)c(OC(C)=O)c1)[C@H](OC(=O)c1cc(OC(C)=O)c(OC(C)=O)c(OC(C)=O)c1)C2 [Pro-EGCG (1), reference compound]
p56 IκB-α (ubiquitinated form), Western blot (Jurkat T cells; Jurkat T cells, all the time points (4, 8, 24 h)): increased level
accumulation of ubiquitinated proteins, Western blot (Jurkat T cells; 24 h): accumulation of ubiquitinated proteins
cellular permeability and stability compared with natural EGCG [4]: significantly enhanced
cell death (dead cells over total cell population) [1]: ~ 70%
proteasomal CT-like activity in treated cells [3, 7]: decrease in the level of the proteasomal CT-like activity in a time-dependent manner
proteasomal CT-like activity in treated cells [3, 8]: showed inhibition
caspase 3/7 activity, induction [5]: 6 fold
anti-tumor activity compared with natural EGCG [6]: greater anti-tumor activity

Compound: CC(=O)Oc1cc(OC(C)=O)c2c(c1)O[C@H](c1cc(OC(C)=O)c(OC(C)=O)c(OC(C)=O)c1)[C@H](OC(=O)c1cccc(F)c1)C2 [Pro-F-EGCG2, (-)-(2R, 3R)-5,7-Diacetoxy-2-(3,4,5-triacetoxyphenyl)chroman-3-yl 3-fluorobenzoate]
cell death (dead cells over total cell population) [1]: 90%

Compound: CC(=O)Oc1cc(OC(C)=O)c2c(c1)O[C@H](c1cc(OC(C)=O)c(OC(C)=O)c(OC(C)=O)c1)[C@H](OC(=O)c1ccccc1F)C2 [Pro-F-EGCG1, (-)-(2R, 3R)-5,7-Diacetoxy-2-(3,4,5-triacetoxyphenyl)chroman-3-yl 2-fluorobenzoate]
cell death (dead cells over total cell population) [1]: 44%

Results, then the compound that gave them:

IC50 [2]: 1250 nM
Compound: O=C(O[C@@H]1Cc2c(O)cc(O)cc2O[C@@H]1c1cc(O)c(O)c(O)c1)c1ccccc1F [F-EGCG1, (-)-(2R, 3R)-5,7-dihydroxy-2-(3,4,5-trihydroxyphenyl)chroman-3-yl 2-fluorobenzoate]

IC50 [2]: 840 nM
Compound: O=C(O[C@@H]1Cc2c(O)cc(O)cc2O[C@@H]1c1cc(O)c(O)c(O)c1)c1cccc(F)c1 [F-EGCG2]

IC50 [2]: 1900 nM
Compound: O=C(O[C@@H]1Cc2c(O)cc(O)cc2O[C@@H]1c1cc(O)c(O)c(O)c1)c1ccc(F)cc1 [F-EGCG3]

IC50 [2]: 650 nM
Compound: O=C(O[C@@H]1Cc2c(O)cc(O)cc2O[C@@H]1c1cc(O)c(O)c(O)c1)c1ccc(F)c(F)c1 [F-EGCG4]
